# Measurements published in paper PMC11311241, “In Situ Forming, Enzyme-Responsive Peptoid-Peptide Hydrogels: An Advanced Long-Acting Injectable Drug Delivery System” (Journal of the American Chemical Society, 2024).
# Like-named read-outs stand apart in the source and are kept apart here.
# Experiments:
# alkaline phosphatase = details: for Strain at which the weaker network breaks / Strain at which the stronger second network or entanglement breaks: strain sweep, 5% w/v gels; for Strain at which the weaker network breaks: first deformation; for Strain at which the stronger second network or entanglement breaks: second deformation; for Strain at complete deformation (G′ and G″ intersect): strain sweep 0.1–1000%, 2.5 rad s-1, 5% w/v gels
# From the text: Our drug delivery system is partly defined by drug diffusion from the hydrogel matrix, and hydrolysis of the peptoid-peptide-drug chemical linker. Reproducing supramolecular gels’ mechanical properties is difficult, especially for peptide-based systems. Experimental parameters and formulation factors are particularly important, as highlighted recently by the Adams and Draper groups.[77],[78] Subtle experimental influences e.g. handling and temperature, can lead to issues with reproducibility. […] Loss (G″) and storage (G′) moduli, critical strain (%) and oscillatory time sweeps were performed to determine the rheological changes with time and the potential for rapid in situ hydrogel depot formation upon exposure to 3.98 U mL^–1 phosphatase enzyme. […] Hydrogel formation occurs when the storage modulus (G′) is at least 1 order of magnitude greater than the loss modulus (G″).[79]
# Rapid gelation is important for in situ formation of drug delivery depots to reduce the diffusion of drug(s) from the depot and potential burst release. Quick gelation after injectable administration is also important for our system in order to reduce the availability of the peptoid-peptide ester linkage with the drug to water within the subcutaneous space, providing a diffusion barrier to rapid drug cleavage by hydrolysis.[84] There are several ways in which time for gelation can be defined: a) the time at which the storage modulus (G′) and loss modulus (G″) cross indicating greater solid-like behavior; b) the time point at which G′ is greater by 1 order of magnitude than G″; and c) the time at which G′ and G″ begin to stabilize/plateau. […]
# (i) peptoid-peptide sequence dissolved in PBS prior to addition of 2 U alkaline phosphatase, (ii) after 2 U alkaline phosphatase addition and formulation as outlined in Table S2.
# S.4. Oscillatory rheology
# Anton Paar MCR302 rheometer (Anton Paar, St Albans, UK). Gels were formulated at a 2 mL volume in 7 mL Sterilin ™ vials as previously described .8 A vane and cup geometry was used to perform both frequency and strain sweeps. Frequency sweeps were performed at 37 °C from 1 – 100 rad s-1 at a strain of 0.5%. […] sweeps were perform ed at 37°C, 2.5 rad s-1 and a strain of 0.1 – 1000%. Gel strength was measured by determining the strain at which the gels […]
# Table S3. Gelation times for peptoid-L-peptide and peptoid-D-peptide hydrogels upon addition of alkaline phosphatase enzyme derived from data in Figures S25 – S27 S40 and […]
# * Mean value of storage modulus (G′) and loss modulus (G″) for each peptoid-peptide derived
# [1] = In vitro zidovudine release from hydrogels in PBS, with KinetDS modelling; format: physicochemical
# From the text: This is typical of physically encapsulated drug release systems, which are prone to drug leakage and a high burst release.[8],[95] The release profile was monitored over the entire 28 day profile. […] Physically encapsulated systems are more applicable to acute drug delivery applications where rapid treatment, such as pain relief, is required at a high dose for a shorter time period. […] Drugs are released from the hydrogel systems in an unmodified form via simple hydrolysis of the drug-ester linkage under physiological conditions. In practice, diffusion through the peptoid-peptide hydrogel matrix and into the surrounding fluid would enable uptake into the systemic circulation. […] There appears to be a link between gelation times for peptoid-L-peptide and peptoid-D-peptide hydrogels, defined by rheological time sweeps (Figures 2f, S25c–f and Table S3). […] It is well established that rapid gel formation minimizes burst release of drug and this is especially relevant to our system,[96] whereby the presence of a gel should act as a diffusional barrier, reducing the ability of water to hydrolyze the covalent ester linkage between peptoid-peptide and drug.
# KinetDS software was utilized to further understand the drug release kinetics of these novel peptoid-peptide hydrogel platforms. Various kinetic models, including zero-order, first-order, Korsmeyer–Peppas, Hixson–Crowell, Higuchi and Weibull models were applied to determine the mechanism of drug release. […] For injectable hydrogel-forming depots quantified by cumulative release, zero-order, first-order and Korsmeyer–Peppas models tend to be the most relevant for establishing the mechanism of drug release kinetics. The Higuchi model applies to drug release driven mainly by diffusion only and it is accepted that this model should not be used when hydrogel swelling may be a factor in release.[97]−[99] […] The Weibull model is associated more with nanoparticles and heterogeneous formulations; however its application in model injectable hydrogels is increasing.[101],[102] […] This indicates super case II transport (n > 0.85), whereby the drug is mainly released through the erosion of the polymer matrix and/or possibly hydrolysis of the ester-drug linkage where present.[99],[103]
# NCTC 929 cells [2] = format: cell-based, murine; details: 24 h, fluorescence microscopy
# Experimental: (§1) Peptoid-peptide cell cytotoxicity studies were performed using the International Standard (ISO) murine fibroblast subcutaneous connective tissue NCTC 929 (ATCC CCL 1) cell line.[108],[116] Cell cytotoxicity was assessed using three separate assays, outlined fully in Section S.7 of the Supporting Information: (i) 3-(4,5-dimethylthiazol-2-yl)-5-(3-carboxymethoxyphenyl)-2-(4-sulfophenyl)-2H-tetrazolium (MTS) colorimetric assay, (ii) lactate dehydrogenase (LDH) release and (iii) a Live/Dead assay. The cytotoxicity of each peptoid-peptide was tested after 6 (LDH, MTS), 24 (Live/Dead, MTS) and 72 h (MTS) of exposure. […]
# for a further 5 min. A stop reagent (50 μL) was then added, and the UV absorbance was measured at 490 nm using a Tecan Sunrise plate reader. […]
# in absorbance: i) a high LDH release control representing 100% toxicity was generated by adding 5 μL of lysis solution to non-treated cells 15 min before the addition of the test reagent; ii) each peptoid-peptide was solubilized in media at the highest tested concentration (500 μM); iii) the LDH standard was added to the media; and iv) an equal volume of the highest solubilized peptoid-peptide concentration (500 μM) and the LDH standard were added to the media. The percentage of cell cytotoxicity was calculated using Equation 3 below and is reported once again as the mean of nine measurements (three replicates, repeated three times). […]
# HIV = details: cited from earlier work
# [3] = rats
# Experimental: Female Sprague–Dawley rats (n = 18, aged 8–10 weeks, mean weight = 220 g) were purchased from Envigo and acclimatized for 1 week prior to experimentation.
# This treatment was then administered intravenously to the tail vein (8.46 mg kg−1).15 The
# extraction from blood plasma samples was possible. The peptoid-D-peptide experimental
# injectable solution was formed by dissolving lyophilized UV-sterilized
# mL) were obtained from the tail vein of each rat and collected in 1.5 mL preheparinized
# group. Centrifugation (13,400 rpm, 10 min) was utilized to separate blood plasma
# be analyzed via analytical RP-HPLC and a validated calibration curve (Figure S35) as outlined
# The pharmacokinetic parameters were calculated using PKSolver 2.0.16, 17 The
# parameters studied were the drug half-life (t1/2), the time to peak drug concentration (Tmax), the
# maximum plasma concentration (Cmax), the area under the plasma concentration – time curve
# from time zero to the last quantifiable concentration on day 35 (AUC0−35), the observed area
# under the plasma concentration – time curve extrapolated from time zero to infinity (AUC0-
# ∞,obs) and the mean residence time (MRT) of the drug extrapolated from time zero to infinity.
# NCTC 929 cells [4] = assay: MTS cell viability / metabolic activity assay; format: cell-based, murine; details: fully solubilized, 500 μM, 6, 24 and 72 h, vs media-only control, nine replicates
# Experimental: as §1
# The MTS-based CellTiter 96 AQueous One Solution Cell Proliferation Assay (Promega, Southampton, UK) was used to analyze the metabolic activity of treated cells.3 UV absorption was measured at 490 nm using a Tecan Sunrise plate reader (Tecan UK Ltd, Reading, UK) and cell viability/percentage metabolic activity was calculated as outlined in Equation 2 below. […]
# LDH release was quantified as a measure of cytotoxicity using a Cytotoxicity Detection KitPLUS assay (Sigma-Aldrich, Dorset, UK) as previously described.13 The cells were incubated, with each solubilized peptoid-peptide (20 – 500 μM) in combination with NCTC 929 cells for 6 hours, after which 100 μL of test reagent was added to each well, and incubated
# [5] = KinetDS fit of 28 day release profile
# [6] = 5% w/v hydrogel, PBS pH 7.4, 37 °C, n = 3
# [7] = plasma zidovudine, IV 8.46 mg kg−1, mean ± SEM, n = 6
# [8] = 5% w/v, 1–100 rad s-1, strain 0.5%, 37 °C, mean
compound,measurement,setting,value
(NPhe)4GGGGKY-OH [dephosphorylated peptoid-L-peptide hydrogel],Strain at which the weaker network breaks,alkaline phosphatase,~5.78%
same,Strain at which the stronger second network or entanglement breaks,alkaline phosphatase,~36.5%
same,Weibull model shape factor β,[1]; [5],0.9550
(NPhe)4GGGGky(p)-OH [tetrabenzylamine-tetraglycine-D-lysine-O-phospho-D-tyrosine],G′ from frequency sweeps,alkaline phosphatase; 5% w/v,~2030 Pa
same,Strain at complete deformation (G′ and G″ intersect),alkaline phosphatase; 37 °C,~192%
same,Strain at which the weaker network breaks,alkaline phosphatase,~0.527%
same,Strain at which the stronger second network or entanglement breaks,alkaline phosphatase,~4.81%
same,Live/Dead staining result at 500 μM,NCTC 929 cells [2],demonstrated cytotoxicity
"(NPhe)4GGGGK(AZT)Y-OH [peptoid-L-peptide hydrogel, chemically conjugated drug]",Strain at complete deformation (G′ and G″ intersect),alkaline phosphatase; 37 °C,~44%
same,Strain at which the weaker network breaks,alkaline phosphatase,~4%
same,Strain at which the stronger second network or entanglement breaks,alkaline phosphatase,~17.5%
same,Cumulative zidovudine released in the first 72 h,"[1]; 5% w/v hydrogel, PBS pH 7.4, 37 °C, % of loaded drug, n = 3",14.2%
same,Cumulative zidovudine released at the final time point (28 days),[1]; [6],15.9%
same,Cumulative zidovudine released within the first 30 min,[1]; [6],11.04%
same,Weibull model shape factor β,[1]; [5],0.9550±0.11
same,Weibull model α,[1]; [5],5.362±0.75
same,Reduction of drug release in the first 72 h versus physical encapsulation,"[1]; PBS pH 7.4, 37 °C, chemically conjugated vs physically encapsulated zidovudine",~88%
Cc1cn([C@H]2C[C@H](N=[N+]=[N-])[C@@H](CO)O2)c(=O)[nH]c1=O [zidovudine],IC90 range,HIV; 90% maximal inhibitory concentration,30–130 ng mL–1
same,four times IC90 value (pharmacokinetic benchmark for HIV protection),HIV,120 ng mL–1
same,"MRT0-∞,obs",[3]; [7],approximately 1.58 hour
same,Tmax,[3]; [7],0.58 ± 0.08 h
same,"MRT0-∞,obs","[3]; plasma zidovudine, IV 8.46 mg kg−1, mean ± SEM, n = 6, listed as Zidovudine",1.58 ± 0.50 h
same,Time to undetectable plasma levels,[3]; IV control,≤ 6 h
same,Plasma peak zidovudine concentration,"[3]; IV control, mean plasma profile (Figure 5a), n = 6","7,500 ng mL–1"
tetrabenzylamine-tetraglycine-L-lysine-O-phospho-L-tyrosine [(NPhe)4GGGGKY(p)-OH],Live/Dead staining result at 500 μM,NCTC 929 cells [2],no observable cytotoxic effects on live cells
(NPhe)4GGGGK(AZT)Y(p)-OH [peptoid-L-peptide covalently attached to zidovudine via an ester linkage at the lysine position],Mean loss modulus (G″) from frequency sweeps,alkaline phosphatase; [8],112.18
same,Mean storage modulus (G′) from frequency sweeps,alkaline phosphatase; [8],856.11
same,Tan δ = G″/G′ from freq sweeps,"alkaline phosphatase; 5% w/v, frequency sweeps 1–100 rad s-1, strain 0.5%, 37 °C, from mean moduli",0.131
same,Gelation time: G′ and G″ cross,"alkaline phosphatase; 5% w/v, time sweep after addition of 3.98 U mL-1 alkaline phosphatase, n = 3",≤ 1 min
same,Time for G′ and G″ to stabilize,"alkaline phosphatase; 5% w/v, time sweep after addition of alkaline phosphatase",135 min
same,Effect on cell metabolic activity (MTS) at 500 μM,NCTC 929 cells [4],cell toxicity was once again demonstrated only after 72 h
